Patent US20110045082A1, “AGGLOMERATES BY CRYSTALLISATION” (priority 1999, published 2011)

Columns and labels:
Assay type in all cases: physicochemical
[1] = Compressibility of the powder
[2] = Loose bulk density of the powder
[3] = Tapped bulk density of the powder
[4] = Average diameter of agglomerates; details: agglomerates as obtained after drying
[5] = Particle size distribution
[6] = Table 1, agglomerated vs needle form
[7] = agitator 3000 RPM, 0.9 mm nozzle
[8] = High flow (solution 15 l/h, acetone 312 l/h)
[9] = Low flow (flows decreased by a factor 2)

O=C(O)[C@H]1/C(=C/CO)O[C@@H]2CC(=O)N21 [Agglomerates of potassium clavulanate, potassium clavulanate]
Compressibility [1, 6]: 28%
Loose bulk density [2, 6]: 0.49 g/mL
Tapped bulk density [3, 6]: 0.68 g/mL
average diameter ([4]; listed as Example 8): 40-200 μm

O=C(O)[C@H]1/C(=C/CO)O[C@@H]2CC(=O)N21 [Example 1, potassium clavulanate]
average diameter [4]: 100-1000 μm

O=C(O)[C@H]1/C(=C/CO)O[C@@H]2CC(=O)N21 [Example 2, potassium clavulanate]
average diameter [4]: 500-1500 μm

O=C(O)[C@H]1/C(=C/CO)O[C@@H]2CC(=O)N21 [Example 3, potassium clavulanate]
average diameter [4]: 1000 μm

O=C(O)[C@H]1/C(=C/CO)O[C@@H]2CC(=O)N21 [Example 4, potassium clavulanate]
average diameter [4]: 500-1000 μm

O=C(O)[C@H]1/C(=C/CO)O[C@@H]2CC(=O)N21 [Example 5, potassium clavulanate]
average diameter [4]: 50-250 μm

O=C(O)[C@H]1/C(=C/CO)O[C@@H]2CC(=O)N21 [Example 6, potassium clavulanate]
average diameter [4]: 10-200 μm

O=C(O)[C@H]1/C(=C/CO)O[C@@H]2CC(=O)N21 [Example 7, potassium clavulanate]
average diameter [4]: 500-1500 μm

O=C(O)[C@H]1/C(=C/CO)O[C@@H]2CC(=O)N21 [Example 9, potassium clavulanate]
Compressibility [1, 7]: 27%
Loose bulk density [2, 7]: 0.22 g/mL
particle size distribution 75-150 μm ([5]; Table 2, 3000 RPM): 43.3 volume %
particle size distribution 150-250 μm ([5]; Table 2, 3000 RPM): 8 volume %
particle size distribution 250-500 μm ([5]; Table 2, 3000 RPM): 1 volume %
particle size distribution 500-710 μm ([5]; Table 2, 3000 RPM): 0.2 volume %
particle size distribution <75 μm ([5]; Table 2, 3000 RPM): 46.3 volume %
particle size distribution >710 μm ([5]; Table 2, 3000 RPM): 0.1 volume %
Tapped bulk density [3, 7]: 0.30 g/mL

O=C(O)[C@H]1/C(=C/CO)O[C@@H]2CC(=O)N21 [Example 10, potassium clavulanate]
Compressibility ([1]; agitator speed 1000 RPM): 11%
Compressibility ([1]; agitator speed 2000 RPM): 11%
Loose bulk density ([2]; agitator speed 1000 RPM): 0.39 g/mL
Loose bulk density ([2]; agitator speed 2000 RPM): 0.42 g/mL
particle size distribution 75-150 μm ([5]; agitator speed 1000 RPM): 6.5 volume %
particle size distribution 150-250 μm ([5]; agitator speed 1000 RPM): 20.7 volume %
particle size distribution 250-500 μm ([5]; agitator speed 1000 RPM): 60.8 volume %
particle size distribution 500-710 μm ([5]; agitator speed 1000 RPM): 6.1 volume %
particle size distribution <75 μm ([5]; agitator speed 1000 RPM): 5.1 volume %
particle size distribution >710 μm ([5]; agitator speed 1000 RPM): 0.2 volume %
particle size distribution 75-150 μm ([5]; agitator speed 2000 RPM): 2.4 volume %
particle size distribution 150-250 μm ([5]; agitator speed 2000 RPM): 9.5 volume %
particle size distribution 250-500 μm ([5]; agitator speed 2000 RPM): 57.3 volume %
particle size distribution 500-710 μm ([5]; agitator speed 2000 RPM): 27 volume %
particle size distribution <75 μm ([5]; agitator speed 2000 RPM): 1.8 volume %
particle size distribution >710 μm ([5]; agitator speed 2000 RPM): 1.5 volume %
Tapped bulk density ([3]; agitator speed 1000 RPM): 0.44 g/mL
Tapped bulk density ([3]; agitator speed 2000 RPM): 0.47 g/mL

O=C(O)[C@H]1/C(=C/CO)O[C@@H]2CC(=O)N21 [Example 11, potassium clavulanate]
Compressibility [1, 8]: 25%
Compressibility [1, 9]: 20%
Loose bulk density [2, 8]: 0.27 g/mL
Loose bulk density [2, 9]: 0.35 g/mL
particle size distribution 75-150 μm ([5]; High flow): 41.2 volume %
particle size distribution 150-250 μm ([5]; High flow): 9.3 volume %
particle size distribution 250-500 μm ([5]; High flow): 0.3 volume %
particle size distribution 500-710 μm ([5]; High flow): 0 volume %
particle size distribution <75 μm ([5]; High flow): 48.7 volume %
particle size distribution >710 μm ([5]; High flow): 0 volume %
particle size distribution 75-150 μm ([5]; Low flow): 50.4 volume %
particle size distribution 150-250 μm ([5]; Low flow): 1.1 volume %
particle size distribution 250-500 μm ([5]; Low flow): 0.6 volume %
particle size distribution 500-710 μm ([5]; Low flow): 0.4 volume %
particle size distribution <75 μm ([5]; Low flow): 48.8 volume %
particle size distribution >710 μm ([5]; Low flow): 0 volume %
Tapped bulk density [3, 8]: 0.36 g/mL
Tapped bulk density [3, 9]: 0.44 g/mL

O=C(O)[C@H]1/C(=C/CO)O[C@@H]2CC(=O)N21 [Needles of Potassium clavulanate, potassium clavulanate, reference compound]
Compressibility [1, 6]: 50%
Loose bulk density [2, 6]: 0.18 g/mL
Tapped bulk density [3, 6]: 0.36 g/mL

potassium clavulanate [Example 12]
Loose bulk density ([2]; Nozzle diameter 0.9 mm): 0.22 g/mL
Loose bulk density ([2]; Nozzle diameter 1.2 mm): 0.36 g/mL
particle size distribution 75-150 μm ([5]; Nozzle diameter 0.9 mm): 43.3 volume %
particle size distribution 150-250 μm ([5]; Nozzle diameter 0.9 mm): 8 volume %
particle size distribution 250-500 μm ([5]; Nozzle diameter 0.9 mm): 1 volume %
particle size distribution 500-710 μm ([5]; Nozzle diameter 0.9 mm): 0.2 volume %
particle size distribution <75 μm ([5]; Nozzle diameter 0.9 mm): 46.3 volume %
particle size distribution >710 μm ([5]; Nozzle diameter 0.9 mm): 0.1 volume %
particle size distribution 75-150 μm ([5]; Nozzle diameter 1.2 mm): 50.6 volume %
particle size distribution 150-250 μm ([5]; Nozzle diameter 1.2 mm): 31.3 volume %
particle size distribution 250-500 μm ([5]; Nozzle diameter 1.2 mm): 1.9 volume %
particle size distribution 500-710 μm ([5]; Nozzle diameter 1.2 mm): 0 volume %
particle size distribution <75 μm ([5]; Nozzle diameter 1.2 mm): 15.9 volume %
particle size distribution >710 μm ([5]; Nozzle diameter 1.2 mm): 0.3 volume %
Tapped bulk density ([3]; Nozzle diameter 0.9 mm): 0.3 g/mL
Tapped bulk density ([3]; Nozzle diameter 1.2 mm): 0.44 g/mL
